Measured values from ChEMBL document CHEMBL3390848, “Affinity selection and sequence-activity relationships of HIV-1 membrane fusion inhibitors directed at the drug-resistant variants” (Medchemcomm, 2010).
Residues, ends and D or L forms follow the SMILES beside them.

How the values were obtained:
[1] = system: Human immunodeficiency virus 1; experiment: Binding affinity to HIV1 His-tagged N-terminal heptad repeat of envelope glycoprotein gp41 assessed as recovery of N36-drug complex at 10 uM after 2 hrs by LC-MS analysis
[2] = system: Human immunodeficiency virus 1; experiment: Binding affinity to HIV1 His-tagged N-terminal heptad repeat of envelope glycoprotein gp41 assessed as recovery of N36-drug complex at 6 uM after 2 hrs by LC-MS analysis
[3] = system: Human immunodeficiency virus 1; experiment: Binding affinity to HIV1 His-tagged N-terminal heptad repeat of envelope glycoprotein gp41 assessed as recovery of N36-drug complex at 1 uM after 2 hrs by LC-MS analysis
[4] = system: Human immunodeficiency virus 1; experiment: Binding affinity to HIV1 His-tagged N-terminal heptad repeat of envelope glycoprotein gp41 assessed as recovery of N36-drug complex at 0.6 uM after 2 hrs by LC-MS analysis
[5] = system: Human immunodeficiency virus 1; experiment: Antiviral activity against HIV1 NL4-3 harboring gp41 D36G mutant infected in human HeLa cells expressing CD4-LTR-beta-gal assessed as inhibition of viral replication after 48 hrs by MAGI assay; assay type: functional, organism-based
[6] = system: Human immunodeficiency virus 1; experiment: Thermal stability of HIV1 envelope glycoprotein gp41 His-tagged N-terminal heptad repeat N36-drug complex assessed as thermal unfolding transition state by measuring molar ellipticity at 4 to 90 degC by circular dichroic spectra analysis

Compound | Activity [1] | Activity [2] | Activity [3] | Activity [4] | EC50 [5] | Tm [6]
CC[C@H](C)[C@H](NC(=O)[C@H](CC(C)C)NC(=O)[C@H](CCC(=O)O)NC(=O)[C@H](CCC(=O)O)NC(=O)[C@@H](NC(=O)[C@H](CCCCN)NC(=O)[C@H](CCCCN)NC(=O)[C@@H](NC(=O)[C@H](Cc1ccc(O)cc1)NC(=O)[C@H](CCC(=O)O)NC(=O)[C@H](CCC(=O)O)NC(=O)[C@@H](NC(=O)[C@H](CCCCN)NC(=O)[C@H](CCCCN)NC(=O)[C@H](CC(=O)O)NC(=O)[C@H](Cc1c[nH]c2ccccc12)NC(=O)[C@H](CCC(=O)O)NC(=O)[C@H](CCC(=O)O)NC(=O)[C@H](Cc1c[nH]c2ccccc12)NC(C)=O)[C@@H](C)CC)[C@@H](C)O)[C@@H](C)CC)C(=O)N[C@@H](CCCCN)C(=O)N[C@@H](CCCCN)C(=O)N[C@@H](Cc1ccccc1)C(=O)N[C@@H](CCC(=O)O)C(=O)N[C@@H](CCC(=O)O)C(=O)N[C@@H](CCC(N)=O)C(=O)N[C@@H](CCC(N)=O)C(=O)N[C@@H](CCCCN)C(=O)N[C@@H](CCCCN)C(=O)N[C@@H](CC(N)=O)C(=O)N[C@@H](CCC(=O)O)C(=O)N[C@@H](CCC(=O)O)C(=O)N[C@@H](CCC(=O)O)C(=O)N[C@@H](CC(C)C)C(=O)N[C@@H](CCCCN)C(=O)N[C@@H](CCCCN)C(N)=O (Ac-WEEWDKKIEEYTKKIEELIKKFEEQQKKNEEELKK-NH2) | 0.7% | 0.6% | 4% | 6.3% | 1.5 nM | 72.9 °C
CC[C@H](C)[C@H](NC(=O)[C@H](CC(C)C)NC(=O)[C@H](CCC(=O)O)NC(=O)[C@H](CCC(=O)O)NC(=O)[C@@H](NC(=O)[C@H](CCCCN)NC(=O)[C@H](CCCCN)NC(=O)[C@@H](NC(=O)[C@H](Cc1ccc(O)cc1)NC(=O)[C@H](CCC(=O)O)NC(=O)[C@H](CCC(=O)O)NC(=O)[C@@H](NC(=O)[C@H](CCCCN)NC(=O)[C@H](CCCCN)NC(=O)[C@H](CC(=O)O)NC(=O)[C@H](Cc1c[nH]c2ccccc12)NC(=O)[C@H](CCC(=O)O)NC(=O)[C@H](CCC(=O)O)NC(=O)[C@H](Cc1c[nH]c2ccccc12)NC(C)=O)[C@@H](C)CC)[C@@H](C)O)[C@@H](C)CC)C(=O)N[C@@H](CCCCN)C(=O)N[C@@H](CCCCN)C(=O)N[C@@H](Cc1ccc(O)cc1)C(=O)N[C@@H](CCC(=O)O)C(=O)N[C@@H](CCC(=O)O)C(=O)N[C@@H](CCC(N)=O)C(=O)N[C@@H](CCC(N)=O)C(=O)N[C@@H](CCCCN)C(=O)N[C@@H](CCCCN)C(=O)N[C@@H](CC(N)=O)C(=O)N[C@@H](CCC(=O)O)C(=O)N[C@@H](CCC(=O)O)C(=O)N[C@@H](CCC(=O)O)C(=O)N[C@@H](CC(C)C)C(=O)N[C@@H](CCCCN)C(=O)N[C@@H](CCCCN)C(N)=O (Ac-WEEWDKKIEEYTKKIEELIKKYEEQQKKNEEELKK-NH2) | 0.5% | 0.4% | 2.3% | 5.9% | 1.9 nM | 68 °C
CC[C@H](C)[C@H](NC(=O)[C@H](CC(C)C)NC(=O)[C@H](CCC(=O)O)NC(=O)[C@H](CCC(=O)O)NC(=O)[C@@H](NC(=O)[C@H](CCCCN)NC(=O)[C@H](CCCCN)NC(=O)[C@@H](NC(=O)[C@H](Cc1ccc(O)cc1)NC(=O)[C@H](CCC(=O)O)NC(=O)[C@H](CCC(=O)O)NC(=O)[C@@H](NC(=O)[C@H](CCCCN)NC(=O)[C@H](CCCCN)NC(=O)[C@H](CC(=O)O)NC(=O)[C@H](Cc1c[nH]c2ccccc12)NC(=O)[C@H](CCC(=O)O)NC(=O)[C@H](CCC(=O)O)NC(=O)[C@H](Cc1c[nH]c2ccccc12)NC(C)=O)[C@@H](C)CC)[C@@H](C)O)[C@@H](C)CC)C(=O)N[C@@H](CCCCN)C(=O)N[C@@H](CCCCN)C(=O)N[C@@H](CC(N)=O)C(=O)N[C@@H](CCC(=O)O)C(=O)N[C@@H](CCC(=O)O)C(=O)N[C@@H](CCC(N)=O)C(=O)N[C@@H](CCC(N)=O)C(=O)N[C@@H](CCCCN)C(=O)N[C@@H](CCCCN)C(=O)N[C@@H](CC(N)=O)C(=O)N[C@@H](CCC(=O)O)C(=O)N[C@@H](CCC(=O)O)C(=O)N[C@@H](CCC(=O)O)C(=O)N[C@@H](CC(C)C)C(=O)N[C@@H](CCCCN)C(=O)N[C@@H](CCCCN)C(N)=O (Ac-WEEWDKKIEEYTKKIEELIKKNEEQQKKNEEELKK-NH2) | 1.1% | 0.5% | 4.3% | 6.4% | 2.2 nM | 69 °C
CC[C@H](C)[C@H](NC(=O)[C@H](CC(C)C)NC(=O)[C@H](CCC(=O)O)NC(=O)[C@H](CCC(=O)O)NC(=O)[C@@H](NC(=O)[C@H](CCCCN)NC(=O)[C@H](CCCCN)NC(=O)[C@@H](NC(=O)[C@H](Cc1ccc(O)cc1)NC(=O)[C@H](CCC(=O)O)NC(=O)[C@H](CCC(=O)O)NC(=O)[C@@H](NC(=O)[C@H](CCCCN)NC(=O)[C@H](CCCCN)NC(=O)[C@H](CC(=O)O)NC(=O)[C@H](Cc1c[nH]c2ccccc12)NC(=O)[C@H](CCC(=O)O)NC(=O)[C@H](CCC(=O)O)NC(=O)[C@H](Cc1c[nH]c2ccccc12)NC(C)=O)[C@@H](C)CC)[C@@H](C)O)[C@@H](C)CC)C(=O)N[C@@H](CCCCN)C(=O)N[C@@H](CCCCN)C(=O)N[C@@H](Cc1cnc[nH]1)C(=O)N[C@@H](CCC(=O)O)C(=O)N[C@@H](CCC(=O)O)C(=O)N[C@@H](CCC(N)=O)C(=O)N[C@@H](CCC(N)=O)C(=O)N[C@@H](CCCCN)C(=O)N[C@@H](CCCCN)C(=O)N[C@@H](CC(N)=O)C(=O)N[C@@H](CCC(=O)O)C(=O)N[C@@H](CCC(=O)O)C(=O)N[C@@H](CCC(=O)O)C(=O)N[C@@H](CC(C)C)C(=O)N[C@@H](CCCCN)C(=O)N[C@@H](CCCCN)C(N)=O (Ac-WEEWDKKIEEYTKKIEELIKKHEEQQKKNEEELKK-NH2) | 0.9% | 0.6% | 2.4% | 5.7% | 1.9 nM | 62.9 °C
CC[C@H](C)[C@H](NC(=O)[C@H](CC(C)C)NC(=O)[C@H](CCC(=O)O)NC(=O)[C@H](CCC(=O)O)NC(=O)[C@@H](NC(=O)[C@H](CCCCN)NC(=O)[C@H](CCCCN)NC(=O)[C@@H](NC(=O)[C@H](Cc1ccc(O)cc1)NC(=O)[C@H](CCC(=O)O)NC(=O)[C@H](CCC(=O)O)NC(=O)[C@@H](NC(=O)[C@H](CCCCN)NC(=O)[C@H](CCCCN)NC(=O)[C@H](CC(=O)O)NC(=O)[C@H](Cc1c[nH]c2ccccc12)NC(=O)[C@H](CCC(=O)O)NC(=O)[C@H](CCC(=O)O)NC(=O)[C@H](Cc1c[nH]c2ccccc12)NC(C)=O)[C@@H](C)CC)[C@@H](C)O)[C@@H](C)CC)C(=O)N[C@@H](CCCCN)C(=O)N[C@@H](CCCCN)C(=O)N[C@@H](CCCNC(=N)N)C(=O)N[C@@H](CCC(=O)O)C(=O)N[C@@H](CCC(=O)O)C(=O)N[C@@H](CCC(N)=O)C(=O)N[C@@H](CCC(N)=O)C(=O)N[C@@H](CCCCN)C(=O)N[C@@H](CCCCN)C(=O)N[C@@H](CC(N)=O)C(=O)N[C@@H](CCC(=O)O)C(=O)N[C@@H](CCC(=O)O)C(=O)N[C@@H](CCC(=O)O)C(=O)N[C@@H](CC(C)C)C(=O)N[C@@H](CCCCN)C(=O)N[C@@H](CCCCN)C(N)=O (Ac-WEEWDKKIEEYTKKIEELIKKREEQQKKNEEELKK-NH2) | 0.3% | 0.1% | 0% | 2.5% | 280 nM | 52.3 °C
